Data reported in US20260356840A1, “[1,2,4]TRIAZOLO[1,5-A]PYRIMIDINONE WRN INHIBITORS” (Nimbus Wadjet, Inc., priority 2023, published 2026).

Target: T1, human Werner helicase (Uniprot Q14191, amino acids 517-1235 with L1074F point mutation), WRN-BV08 (Homo sapiens, UniProt Q14191, L1074F)
T1 construct: Uniprot Q14191, amino acids 517-1235 with L1074F point mutation; TEV cleavable 8xHis tag (C, cleaved yes); made in house; host or cells: Sf9 insect cells (baculovirus, pFastBac)
Experiment: WRN (BV08) ADP-Glo Assay
Assay type: biochemical
Description: DNA duplex was synthesized at BGI (Shenzhen, China) and was composed of strand 1 with the sequence 5′-[…]-3′ (SEQ ID NO.: 1) and strand 2 with the sequence 5′-[…]-3′ (SEQ ID NO.: 2). DNA strands were annealed by heating to 95 °C for 5 minutes followed by slow cooling to room temperature. […] DMSO (0.1 μl) was added to columns 12, rows A-H and column 24, rows I-P for the maximum signal control.
Where RLU=relative luminescence units, sample=signal in sample well, and MIN and MAX are the respective minimum and maximum signal controls. • Four-parameter IC50 fit equation:
Y=Bottom+(Top−Bottom)/(1+(IC50/X)^Hill Slope)
Where top and bottom are normally allowed to float but may be fixed at 100 or 0 respectively in a 3-parameter fit. Y is the % inhibition and X is the compound concentration.
Molecular Biology and virus production. […] The baculovirus from the expression plasmid WRN-BV08 was generated from transfection and amplification following the manufacturer's instructions.
Sf9 cells grown in SF900II media were infected with 1:200 WRN-BV08 P2 virus and incubated for protein expression for 72 h at 27 °C. The WRN protein was purified using the following protocol. The cell pellets were thawed and resuspended in buffer A (50 mM Tris, pH 7.5, 500 mM NaCl, 1 mM TCEP, 10% Glycerol) supplemented with 0.5% CHAPS, 1 mM [COMPOUND LEFT OUT], 1 μg/ml Leupeptin, 1 μg/ml Pepstatin, and the Pierce Universal Nuclease and cocktail tablet. Cleared lysates were loaded onto a Ni Sepharose™ excel column and washed with buffer A and bound protein was eluted with buffer A supplemented with 300 mM imidazole. The eluted protein was dialyzed against buffer A and digested by His-tagged TEV (1:5 ratio) overnight at 4 °C. […] Untagged WRN protein was eluted from the column with buffer A supplemented with 20 mM imidazole, dialyzed overnight into buffer B (50 mM Tris, pH 7.5, 1 mM TCEP, 10% Glycerol) supplemented with 150 mM NaCl and loaded onto a Heparin column. Proteins were eluted with a step gradient of buffer B supplemented with 150 mM, 200 mM, 300 mM and 500 mM NaCl.

T1 sequence (Q14191 517-1235 L1074F): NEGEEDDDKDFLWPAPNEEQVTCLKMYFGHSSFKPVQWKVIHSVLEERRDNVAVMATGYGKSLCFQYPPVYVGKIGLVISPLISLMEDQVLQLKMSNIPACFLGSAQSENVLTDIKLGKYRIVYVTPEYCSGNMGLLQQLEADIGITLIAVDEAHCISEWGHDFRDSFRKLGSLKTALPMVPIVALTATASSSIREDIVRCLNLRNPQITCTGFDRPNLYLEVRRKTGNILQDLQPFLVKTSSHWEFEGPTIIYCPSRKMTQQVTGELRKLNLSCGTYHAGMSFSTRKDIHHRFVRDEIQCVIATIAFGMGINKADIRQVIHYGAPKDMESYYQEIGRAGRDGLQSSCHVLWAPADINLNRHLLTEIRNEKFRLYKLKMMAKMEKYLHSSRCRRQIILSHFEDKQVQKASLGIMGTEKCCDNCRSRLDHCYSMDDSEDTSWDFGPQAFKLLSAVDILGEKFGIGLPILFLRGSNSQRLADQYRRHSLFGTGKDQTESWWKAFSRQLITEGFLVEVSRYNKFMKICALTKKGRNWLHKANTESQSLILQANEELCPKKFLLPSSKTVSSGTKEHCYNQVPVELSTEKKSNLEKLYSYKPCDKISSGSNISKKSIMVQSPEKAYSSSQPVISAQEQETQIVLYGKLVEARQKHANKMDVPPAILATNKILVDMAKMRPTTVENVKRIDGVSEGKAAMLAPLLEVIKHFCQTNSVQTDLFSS

Row | SMILES | IC50
1 | CCc1c(N2CCN(C(=O)[C@H]3C[C@@H](O)C3)CC2)c(=O)n2nc(C3=CCOCC3)nc2n1CC(=O)Nc1ccc(C(F)(F)F)cc1Cl [Compound I-39, N-[2-chloro-4-(trifluoromethyl)phenyl]-2-[2-(3,6-dihydro-2H-pyran-4-yl)-5-ethyl-7-oxo-6-{4-[(1s,3s)-3-hydroxycyclobutanecarbonyl]piperazin-1-yl}-4H,7H-[1,2,4]triazolo[1,5-a]pyrimidin-4-yl]acetamide] | 0.005 to 0.05 µM
2 | CCc1c(N2CCN(C(=O)c3cnn(C)c3)CC2)c(=O)n2nc(-c3nccc(OC)n3)nc2n1CC(=O)Nc1ccc(C(F)(F)F)cc1Cl [Compound I-70, N-[2-chloro-4-(trifluoromethyl)phenyl]-2-[5-ethyl-2-(4-methoxypyrimidin-2-yl)-6-[4-(1-methyl-1H-pyrazole-4-carbonyl)piperazin-1-yl]-7-oxo-4H,7H-[1,2,4]triazolo[1,5-a]pyrimidin-4-yl]acetamide] | 0.1 to 0.5 µM
3 | CCc1c(N2CCN(C(=O)c3c(O)cccc3OC)CC2)c(=O)n2nc(C3=CCOCC3)nc2n1CC(=O)Nc1ccc(C(F)(F)F)cc1Cl [Compound I-4, N-[2-chloro-4-(trifluoromethyl)phenyl]-2-[2-(3,6-dihydro-2H-pyran-4-yl)-5-ethyl-6-[4-(2-hydroxy-6-methoxybenzoyl)piperazin-1-yl]-7-oxo-4H,7H-[1,2,4]triazolo[1,5-a]pyrimidin-4-yl]acetamide] | 0.005 to 0.05 µM
4 | CCc1c(N2CCN(C(=O)c3cnn(C)c3)CC2)c(=O)n2nc(-c3ccnc(OC)n3)nc2n1CC(=O)Nc1ccc(C(F)(F)F)cc1Cl [Compound I-64, N-[2-chloro-4-(trifluoromethyl)phenyl]-2-[5-ethyl-2-(2-methoxypyrimidin-4-yl)-6-[4-(1-methyl-1H-pyrazole-4-carbonyl)piperazin-1-yl]-7-oxo-4H,7H-[1,2,4]triazolo[1,5-a]pyrimidin-4-yl]acetamide] | 0.005 to 0.05 µM
5 | CCc1c(N2CCN(C(C)=O)CC2)c(=O)n2nc(C3=CCOCC3)nc2n1CC(=O)Nc1ccc(C(F)(F)F)cc1Cl [Compound I-16, 2-[6-(4-acetylpiperazin-1-yl)-2-(3,6-dihydro-2H-pyran-4-yl)-5-ethyl-7-oxo-4H,7H-[1,2,4]triazolo[1,5-a]pyrimidin-4-yl]-N-[2-chloro-4-(trifluoromethyl)phenyl]acetamide] | 0.005 to 0.05 µM
6 | CCc1c(N2CCN(C(=O)CCO)CC2)c(=O)n2nc(C3=CCOCC3)nc2n1CC(=O)Nc1ccc(C(F)(F)F)cc1Cl [Compound I-24, N-[2-chloro-4-(trifluoromethyl)phenyl]-2-[2-(3,6-dihydro-2H-pyran-4-yl)-5-ethyl-6-[4-(3-hydroxypropanoyl)piperazin-1-yl]-7-oxo-4H,7H-[1,2,4]triazolo[1,5-a]pyrimidin-4-yl]acetamide] | 0.005 to 0.05 µM
7 | CCc1c(N2CCN(C(=O)c3cnn(C)c3)CC2)c(=O)n2nc(-c3ccnc(OC4CC4)c3)nc2n1CC(=O)Nc1ccc(C(F)(F)F)cc1Cl [Compound I-52, N-[2-chloro-4-(trifluoromethyl)phenyl]-2-[2-(2-cyclopropoxypyridin-4-yl)-5-ethyl-6-[4-(1-methyl-1H-pyrazole-4-carbonyl)piperazin-1-yl]-7-oxo-4H,7H-[1,2,4]triazolo[1,5-a]pyrimidin-4-yl]acetamide] | 0.005 to 0.05 µM
8 | CCc1c(N2CCN(C(=O)c3ncnc(C)c3O)CC2)c(=O)n2nc(-c3ccnc(OC)c3F)nc2n1CC(=O)Nc1ccc(C(F)(F)F)cc1Cl [Compound I-45, N-[2-chloro-4-(trifluoromethyl)phenyl]-2-[5-ethyl-2-(3-fluoro-2-methoxypyridin-4-yl)-6-[4-(5-hydroxy-6-methylpyrimidine-4-carbonyl)piperazin-1-yl]-7-oxo-4H,7H-[1,2,4]triazolo[1,5-a]pyrimidin-4-yl]acetamide] | 0.005 to 0.05 µM
9 | CCc1c(N2CCN(C(=O)c3c(C)cnc(C)c3O)CC2)c(=O)n2nc(C3=CCOCC3)nc2n1CC(=O)Nc1ccc(C(F)(F)F)cc1Cl [Compound I-13, N-[2-chloro-4-(trifluoromethyl)phenyl]-2-[2-(3,6-dihydro-2H-pyran-4-yl)-5-ethyl-6-[4-(3-hydroxy-2,5-dimethylpyridine-4-carbonyl)piperazin-1-yl]-7-oxo-4H,7H-[1,2,4]triazolo[1,5-a]pyrimidin-4-yl]acetamide] | 0.005 to 0.05 µM
10 | CCc1c(N2CCN(C(=O)c3cc(C)no3)CC2)c(=O)n2nc(-c3ccnc(OC)c3)nc2n1CC(=O)Nc1ccc(C(F)(F)F)cc1Cl [Compound I-65, N-[2-chloro-4-(trifluoromethyl)phenyl]-2-[5-ethyl-2-(2-methoxypyridin-4-yl)-6-[4-(3-methyl-1,2-oxazole-5-carbonyl)piperazin-1-yl]-7-oxo-4H,7H-[1,2,4]triazolo[1,5-a]pyrimidin-4-yl]acetamide] | 0.005 to 0.05 µM
11 | CCc1c(N2CCC3C2CCN3C(=O)c2cnn(C)c2)c(=O)n2nc(C3=CCOCC3)nc2n1CC(=O)Nc1ccc(C(F)(F)F)cc1Cl (stereo not drawn) [Compound I-68, N-[2-chloro-4-(trifluoromethyl)phenyl]-2-[2-(3,6-dihydro-2H-pyran-4-yl)-5-ethyl-6-[4-(1-methyl-1H-pyrazole-4-carbonyl)-octahydropyrrolo[3,2-b]pyrrol-1-yl]-7-oxo-4H,7H-[1,2,4]triazolo[1,5-a]pyrimidin-4-yl]acetamide] | 0.05 to 0.1 µM
12 | CCc1c(N2CCN(C(=O)c3cnc(C)s3)CC2)c(=O)n2nc(-c3ccnc(OC)c3)nc2n1CC(=O)Nc1ccc(C(F)(F)F)cc1Cl [Compound I-59, N-[2-chloro-4-(trifluoromethyl)phenyl]-2-[5-ethyl-2-(2-methoxypyridin-4-yl)-6-[4-(2-methyl-1,3-thiazole-5-carbonyl)piperazin-1-yl]-7-oxo-4H,7H-[1,2,4]triazolo[1,5-a]pyrimidin-4-yl]acetamide] | 0.005 to 0.05 µM
13 | CCc1c(N2CCN(C(=O)c3ccnc(OC)c3O)CC2)c(=O)n2nc(C3=CCOCC3)nc2n1CC(=O)Nc1ccc(C(F)(F)F)cc1Cl [Compound I-34, N-[2-chloro-4-(trifluoromethyl)phenyl]-2-[2-(3,6-dihydro-2H-pyran-4-yl)-5-ethyl-6-[4-(3-hydroxy-2-methoxypyridine-4-carbonyl)piperazin-1-yl]-7-oxo-4H,7H-[1,2,4]triazolo[1,5-a]pyrimidin-4-yl]acetamide] | 0.005 to 0.05 µM
14 | CCc1c(N2CCN(C(=O)c3ncnc(C)c3O)CC2)c(=O)n2nc(-c3cnc(OC)c(C)c3)nc2n1CC(=O)Nc1ccc(C(F)(F)F)cc1Cl [Compound I-42, N-[2-chloro-4-(trifluoromethyl)phenyl]-2-{5-ethyl-6-[4-(5-hydroxy-6-methylpyrimidine-4-carbonyl)piperazin-1-yl]-2-(6-methoxy-5-methylpyridin-3-yl)-7-oxo-4H,7H-[1,2,4]triazolo[1,5-a]pyrimidin-4-yl}acetamide] | 0.005 to 0.05 µM
15 | CCc1c(N2CCN(C(=O)c3c(C)nn(C)c3C)CC2)c(=O)n2nc(-c3ccnc(OC)c3)nc2n1CC(=O)Nc1ccc(C(F)(F)F)cc1Cl [Compound I-50, N-[2-chloro-4-(trifluoromethyl)phenyl]-2-[5-ethyl-2-(2-methoxypyridin-4-yl)-7-oxo-6-[4-(1,3,5-trimethyl-1H-pyrazole-4-carbonyl)piperazin-1-yl]-4H,7H-[1,2,4]triazolo[1,5-a]pyrimidin-4-yl]acetamide] | 0.005 to 0.05 µM
16 | COc1cc(-c2nc3n(CC(=O)Nc4ccc(C(F)(F)F)cc4Cl)cc(C4CCN(C(=O)c5ncnc(C)c5O)CC4)c(=O)n3n2)ccn1 [Compound I-81, N-[2-chloro-4-(trifluoromethyl)phenyl]-2-{6-[1-(5-hydroxy-6-methylpyrimidine-4-carbonyl)piperidin-4-yl]-2-(2-methoxypyridin-4-yl)-7-oxo-4H,7H-[1,2,4]triazolo[1,5-a]pyrimidin-4-yl}acetamide] | 0.1 to 0.5 µM
17 | CCc1c(N2CCN(C(=O)C(C)(C)O)CC2)c(=O)n2nc(C3=CCOCC3)nc2n1CC(=O)Nc1ccc(C(F)(F)F)cc1Cl [Compound I-18, N-[2-chloro-4-(trifluoromethyl)phenyl]-2-[2-(3,6-dihydro-2H-pyran-4-yl)-5-ethyl-6-[4-(2-hydroxy-2-methylpropanoyl)piperazin-1-yl]-7-oxo-4H,7H-[1,2,4]triazolo[1,5-a]pyrimidin-4-yl]acetamide] | 0.05 to 0.1 µM
18 | CCc1c(N2CCN(C(=O)c3coc(C)n3)CC2)c(=O)n2nc(-c3ccnc(OC)c3)nc2n1CC(=O)Nc1ccc(C(F)(F)F)cc1Cl [Compound I-75, N-[2-chloro-4-(trifluoromethyl)phenyl]-2-[5-ethyl-2-(2-methoxypyridin-4-yl)-6-[4-(2-methyl-1,3-oxazole-4-carbonyl)piperazin-1-yl]-7-oxo-4H,7H-[1,2,4]triazolo[1,5-a]pyrimidin-4-yl]acetamide] | 0.005 to 0.05 µM
